Results from US10934297B2, “5-heteroaryl substituted indazole-3-carboxamides and preparation and use thereof” (Samumed, LLC, priority 2018, dated 2021).

Experiments:
[1] = tested on: Wnt activity (Sp5-Luc reporter in SW480 cells); assay: Screening assay for Wnt activity: Sp5-Luc reporter gene assay in SW480 colon carcinoma cells; type: cell-based, human; details: Homo sapiens, 36 to 48 hours
Text: The screening assay for Wnt activity is described as follows. Reporter cell lines can be generated by stably transducing cancer cell lines (e.g., colon cancer) or primary cells (e.g., IEC-6 intestinal cells) with a lentiviral construct that includes a Wnt-responsive promoter driving expression of the firefly luciferase gene.
SW480 colon carcinoma cells were transduced with a lentiviral vector expressing luciferase with a human Sp5 promoter consisting of a sequence of eight TCF/LEF binding sites. SW480 cells stably expressing the Sp5-Luc reporter gene and a hygromycin resistance gene were selected by treatment with 150 μg/mL of hygromycin for 7 days. These stably transduced SW480 cells were expanded in cell culture and used for all further screening activities. […] For Sp5-Luc reporter gene assays, the cells were plated at 4,000 cells/well in 384-well plates with a DMEM medium containing 1% fetal bovine serum, and 1% Penicillin-Streptomycin and incubated for 36 to 48 hours at 37° C. and 5% CO2. Following incubation, 15 μl of BriteLite Plus luminescence reagent (Perkin Elmer) was added to each well of the 384-well assay plates. The plates were placed on an orbital shaker for 2 min and then luminescence was quantified using the Envision (Perkin Elmer) plate reader. Readings were normalized to DMSO only treated cells, and normalized activities were utilized for EC50 calculations using the dose-response log (inhibitor) vs. response-variable slope (four parameters) nonlinear regression feature available in GraphPad Prism 5.0 (or Dotmatics).

DYRK1A kinase = DYRK1A kinase (Homo sapiens (Human), UniProt Q13627); assay: DYRK1A kinase assay (Ser/Thr 18 peptide Z-lyte FRET); type: biochemical; details: read-out: EC50 (method: IC50)
Protocol: Representative compounds were screened using the assay procedure for DYRK1A kinase activity as described below.
This is a non-radioactive assay using fluorescence resonance energy transfer (FRET) between coumarin and fluorescein to detect kinase activity which is represented as a ratio of coumarin emission/fluorescein emission.
The mixture was allowed to incubate with the representative compounds for one hour at room temperature. All reactions were performed in duplicate. Unphosphorylated (“0% Control”) and phosphorylated (“100% control”) forms of Ser/Thr 18 served as control reactions. Additionally, an 11-point dose-response curve of Staurosporine (1 uM top) was run to serve as a positive compound control.
After incubation, Development Reagent A was diluted in Development Buffer then added to the reaction and allowed to further incubate for one hour at room temperature.

GSK3β kinase = GSK3β kinase (Homo sapiens (Human), UniProt P49841); assay: GSK3β kinase assay (Ser/Thr 09 peptide Z-lyte FRET); type: biochemical; details: read-out: EC50 (method: IC50)
Protocol: Representative compounds were screened using the assay procedure for GSK3β kinase activity as described below.
This is a non-radioactive assay using fluorescence resonance energy transfer (FRET) between coumarin and fluorescein to detect kinase activity which is represented as ratio of coumarin emission/fluorescein emission.
The mixture is allowed to incubate with the representative compounds for one hour at room temperature. All reactions were performed in duplicate. Unphosphorylated (“0% Control”) and phosphorylated (“100% control”) forms of Ser/Thr 18 serve as control reactions.
After incubation, diluted Development Buffer is added to the reaction and allowed to further incubate for one hour at room temperature.
Dose-response curves are generated and inhibitory concentration (IC50) values are calculated using non-linear regression curve fit in the Dotmatics' Studies Software (Bishops Stortford, UK).

[2] = tested on: SW480 colon carcinoma cells; assay: Cell viability assay (CellTiter-Glo) in SW480 colon carcinoma cells; type: cell-based, human; details: Homo sapiens, 96 h, four days
Protocol: Representative compounds were screened using the assay procedure to assess the effect on cell viability as described below.
SW480 colon carcinoma cells were transduced with a lentiviral vector expressing luciferase with a human Sp5 promoter consisting of a sequence of eight TCF/LEF binding sites. SW480 cells stably expressing the Sp5-Luc reporter gene and a hygromycin resistance gene were selected by treatment with 150 μg/mL of hygromycin for 7 days. These stably transduced SW480 cells were expanded in cell culture and used for all further screening activities.
For the Cell Viability Assays, the cells were plated at 2,000 cells/well in 384-well plates with a DMEM medium containing 1% fetal bovine serum, and 1% Penicillin-Streptomycin and incubated for […] at 37° C. and 5% CO2. Eight replicates of DMSO-treated cells served as controls and cells treated with compound were performed in duplicate.
After incubation, 10 μL of CellTiter-Glo (Promega) was added to each well allowed to incubate for approximately 12 minutes. This reagent “results in cell lysis and generation of a luminescent signal proportional to the amount of ATP present. The amount of ATP is directly proportional to the number of cells present in culture, in agreement with previous reports. The CellTiter-Glo® Assay generates a “glow-type” luminescent signal, produced by the luciferase reaction (Promega.com)”.

[3] = tested on: primary human fibroblasts derived from IPF patients (LL29 cells); assay: Inhibition of the fibrotic process: αSMA staining in TGF-β1 treated LL29 fibroblasts; type: cell-based; details: Homo sapiens, Fibroblast, 96 h; LL29 cells, TGF-β1 20 ng/mL, 4 days, % αSMA positive cells
Protocol: Representative compounds were screened using primary human fibroblasts (derived from IPF patients) treated with TGF-β1 to determine their ability to inhibit the fibrotic process.
LL29 cells were plated at 1,500 cells/well in 70 μL/well F12 medium supplemented with 1% Fetal Bovine Serum. […] Wells treated with TGF-β1 and containing DMSO were used as positive control, and cells with only DMSO were negative control. […] Following incubation for 4 days, SYTOX green nucleic acid stain (Life Technologies [Thermo Fisher Scientific]) was added to the wells at a final concentration of 1 μM and incubated at room temperature for 30 min.

GSK3β kinase, sequence (P49841 whole entry): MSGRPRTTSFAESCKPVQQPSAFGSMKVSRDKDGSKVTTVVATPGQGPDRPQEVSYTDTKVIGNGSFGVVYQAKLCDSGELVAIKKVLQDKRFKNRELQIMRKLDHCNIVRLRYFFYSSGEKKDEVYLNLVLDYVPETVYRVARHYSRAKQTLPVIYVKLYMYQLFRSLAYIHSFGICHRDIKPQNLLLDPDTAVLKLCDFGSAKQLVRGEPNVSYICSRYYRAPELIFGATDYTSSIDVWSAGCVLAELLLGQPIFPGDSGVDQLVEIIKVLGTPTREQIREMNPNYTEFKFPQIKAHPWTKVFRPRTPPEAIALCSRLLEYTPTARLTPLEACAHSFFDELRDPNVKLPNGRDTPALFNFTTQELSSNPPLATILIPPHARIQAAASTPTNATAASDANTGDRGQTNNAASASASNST

With CN1CCC(NC(=O)c2n[nH]c3ccc(-c4cc(C(F)(F)F)nn4C)cc23)CC1 [Compound 29, 5-(1-Methyl-3-(trifluoromethyl)-1H-pyrazol-5-yl)-N-(1-methylpiperidin-4-yl)-1H-indazole-3-carboxamide] the EC50 [1] was greater than 10 µM, the IC50 (DYRK1A kinase) was greater than 10 µM and the IC50 (GSK3β kinase) was greater than 10 µM. For the same compound, the EC50 [2] was 9.24 µM and the EC50 [3] was greater than 10 µM.
In the case of Cc1ncc(-c2ccc3[nH]nc(C(=O)NC4CCN(CC(C)(C)F)CC4)c3c2)n1C [Compound 42, 5-(1,2-Dimethyl-1H-imidazol-5-yl)-N-(1-(2-fluoro-2-methylpropyl)piperidin-4-yl)-1H-indazole-3-carboxamide], the IC50 (DYRK1A kinase) is reported as 0.028 µM and the IC50 (GSK3β kinase) is reported as 0.029 µM.
O=C(Nc1ccc(F)cc1)c1n[nH]c2ccc(-c3cnc4n3CCNC4)cc12 [Compound 52, N-(4-Fluorophenyl)-5-(5,6,7,8-tetrahydroimidazo[1,2-a]pyrazin-3-yl)-1H-indazole-3-carboxamide] was tested, and the EC50 [1] was greater than 10 µM, the IC50 (DYRK1A kinase) was 0.011 µM and the IC50 (GSK3β kinase) was 0.011 µM.
Compound O=C(Nc1ccc(OC(F)F)cc1)c1n[nH]c2ccc(-c3cnn(C4CCOCC4)c3)cc12 [Compound 62, N-(4-(Difluoromethoxy)phenyl)-5-(1-(tetrahydro-2H-pyran-4-yl)-1H-pyrazol-4-yl)-1H-indazole-3-carboxamide] has an EC50 [1] of 2.28 µM, an IC50 (DYRK1A kinase) of 3.92 µM and an IC50 (GSK3β kinase) greater than 10 µM. It also gave an EC50 [2] greater than 10 µM and an EC50 [3] of 3.1 µM.
Compound CC(C)(C)n1cc(-c2ccc3[nH]nc(C(=O)N[C@H]4CC[C@H](CN5CC(F)C5)CC4)c3c2)cn1 [Compound 25, 5-(1-(tert-Butyl)-1H-pyrazol-4-yl)-N-((1R,4R)-4-((3-fluoroazetidin-1-yl)methyl)cyclohexyl)-1H-indazole-3-carboxamide] has an EC50 [1] greater than 10 µM, an IC50 (DYRK1A kinase) of 0.618 µM and an IC50 (GSK3β kinase) of 0.788 µM. For the same compound, the EC50 [2] was 6.02 µM and the EC50 [3] was 1.89 µM.
For Cn1cc(-c2cc3c(C(=O)Nc4ccc(CN5CC(F)C5)cc4)n[nH]c3cc2F)cn1 [Compound 67, 6-Fluoro-N-(4-((3-fluoroazetidin-1-yl)methyl)phenyl)-5-(1-methyl-1H-pyrazol-4-yl)-1H-indazole-3-carboxamide], the EC50 [1] was 0.549 µM, the IC50 (DYRK1A kinase) was 0.009 µM and the IC50 (GSK3β kinase) was 0.035 µM. It also gave an EC50 [2] of 1 µM and an EC50 [3] of 0.15 µM.
O=C(Nc1ccc(OC(F)F)cc1)c1n[nH]c2ccc(-c3cnc4n3CCNC4)cc12 [Compound 64, N-(4-(Difluoromethoxy)phenyl)-5-(5,6,7,8-tetrahydroimidazo[1,2-a]pyrazin-3-yl)-1H-indazole-3-carboxamide] was tested, and the EC50 [1] was 0.937 µM, the IC50 (DYRK1A kinase) was 0.016 µM and the IC50 (GSK3β kinase) was 0.021 µM. The EC50 [2] was 1.7 µM and the EC50 [3] was 1.53 µM.
With C[C@H]1C[C@H](NC(=O)c2n[nH]c3ccc(-c4cnn(C)c4)cc23)CCN1CC(C)(C)F [Compound 44, N-((2S,4R)-1-(2-fluoro-2-methylpropyl)-2-methylpiperidin-4-yl)-5-(1-methyl-1H-pyrazol-4-yl)-1H-indazole-3-carboxamide] the IC50 (DYRK1A kinase) was 0.007 µM and the IC50 (GSK3β kinase) was 0.007 µM.
Work on O=C(Nc1ccc(F)cc1)c1n[nH]c2ccc(-c3nnc4n3CCNC4)cc12 [Compound 53, N-(4-Fluorophenyl)-5-(5,6,7,8-tetrahydro-[1,2,4]triazolo[4,3-a]pyrazin-3-yl)-1H-indazole-3-carboxamide] yielded an EC50 [1] of 1.84 µM, an IC50 (DYRK1A kinase) of 0.027 µM and an IC50 (GSK3β kinase) of 0.001 µM. It also gave an EC50 [2] greater than 10 µM and an EC50 [3] greater than 10 µM.
Compound Cn1cc(-c2cc3c(C(=O)Nc4ccc(CN5CCOCC5)cc4)n[nH]c3cc2F)cn1 [Compound 77, 6-Fluoro-5-(1-methyl-1H-pyrazol-4-yl)-N-(4-(morpholinomethyl)phenyl)-1H-indazole-3-carboxamide] has an EC50 [1] of 0.411 µM, an IC50 (DYRK1A kinase) of 0.004 µM and an IC50 (GSK3β kinase) of 0.026 µM. It also gave an EC50 [2] of 2.83 µM and an EC50 [3] of 0.291 µM.
In the case of CC(C)(F)CN1CCC(n2cc(-c3ccc4[nH]nc(C(=O)Nc5ccc(OC(F)F)cc5)c4c3)cn2)CC1 [Compound 61, N-(4-(difluoromethoxy)phenyl)-5-(1-(1-(2-fluoro-2-methylpropyl)piperidin-4-yl)-1H-pyrazol-4-yl)-1H-indazole-3-carboxamide], the EC50 [1] is reported as greater than 10 µM, the IC50 (DYRK1A kinase) is reported as 9.94 µM and the IC50 (GSK3β kinase) is reported as 9.37 µM. It also gave an EC50 [2] greater than 10 µM and an EC50 [3] of 0.009 µM.
For Cn1cc(-c2cc3c(C(=O)Nc4ccc(CN5CCC(F)(F)CC5)cc4)n[nH]c3cc2F)cn1 [Compound 76, N-(4-((4,4-Difluoropiperidin-1-yl)methyl)phenyl)-6-fluoro-5-(1-methyl-1H-pyrazol-4-yl)-1H-indazole-3-carboxamide], the EC50 [1] was 1.29 µM, the IC50 (DYRK1A kinase) was 0.107 µM and the IC50 (GSK3β kinase) was 0.302 µM. For the same compound, the EC50 [2] was 6.2 µM and the EC50 [3] was 0.174 µM.
Work on CN1CCC(n2cc(-c3ccc4[nH]nc(C(=O)Nc5ccc(OC(F)F)cc5)c4c3)cn2)CC1 [Compound 58, N-(4-(Difluoromethoxy)phenyl)-5-(1-(1-methylpiperidin-4-yl)-1H-pyrazol-4-yl)-1H-indazole-3-carboxamide] yielded an EC50 [1] of 1.5 µM, an IC50 (DYRK1A kinase) of 0.053 µM and an IC50 (GSK3β kinase) of 3.02 µM. The EC50 [2] was 0.328 µM and the EC50 [3] was 5.14 µM.
Work on O=C(Nc1ccc(OC(F)F)cc1)c1n[nH]c2ccc(-c3cnn(C4CCNCC4F)c3)cc12 (stereo not drawn) [Compound 57, N-(4-(Difluoromethoxy)phenyl)-5-(1-(3-fluoropiperidin-4-yl)-1H-pyrazol-4-yl)-1H-indazole-3-carboxamide] yielded an EC50 [1] of 1.09 µM, an IC50 (DYRK1A kinase) of 1.05 µM and an IC50 (GSK3β kinase) of 5.38 µM. It also gave an EC50 [2] of 0.57 µM and an EC50 [3] of 0.597 µM.
Compound Cn1cc(-c2cc(Cl)c3[nH]nc(C(=O)NC4CCC(F)(F)CC4)c3c2)cn1 [Compound 17, 7-Chloro-N-(4,4-difluorocyclohexyl)-5-(1-methyl-1H-pyrazol-4-yl)-1H-indazole-3-carboxamide] has an EC50 [1] greater than 10 µM, an IC50 (DYRK1A kinase) greater than 10 µM and an IC50 (GSK3β kinase) greater than 10 µM. For the same compound, the EC50 [2] was greater than 10 µM and the EC50 [3] was 1.2 µM.
For O=C(Nc1ccc(F)cc1)c1n[nH]c2ccc(-c3cnn(C4CNC4)c3)cc12 [Compound 47, 5-(1-(Azetidin-3-yl)-1H-pyrazol-4-yl)-N-(4-fluorophenyl)-1H-indazole-3-carboxamide], the EC50 [1] was 4.58 µM, the IC50 (DYRK1A kinase) was 0.19 µM and the IC50 (GSK3β kinase) was 0.674 µM. The EC50 [2] was greater than 10 µM and the EC50 [3] was 5.21 µM.
